Measured values taken from paper PMC10951314 (Nature Communications, 2024).

Columns and labels:
[1] = target: T1, MavL42-435 (Legionella pneumophila, UniProt Q5ZSJ1)
T1 construct: gene lpg2526

[2] = target: T2, MavL42-435-UbVME (Legionella pneumophila, UniProt Q5ZSJ1)
T2 construct: gene lpg2526

T1 sequence (Q5ZSJ1 42-435 limits assumed): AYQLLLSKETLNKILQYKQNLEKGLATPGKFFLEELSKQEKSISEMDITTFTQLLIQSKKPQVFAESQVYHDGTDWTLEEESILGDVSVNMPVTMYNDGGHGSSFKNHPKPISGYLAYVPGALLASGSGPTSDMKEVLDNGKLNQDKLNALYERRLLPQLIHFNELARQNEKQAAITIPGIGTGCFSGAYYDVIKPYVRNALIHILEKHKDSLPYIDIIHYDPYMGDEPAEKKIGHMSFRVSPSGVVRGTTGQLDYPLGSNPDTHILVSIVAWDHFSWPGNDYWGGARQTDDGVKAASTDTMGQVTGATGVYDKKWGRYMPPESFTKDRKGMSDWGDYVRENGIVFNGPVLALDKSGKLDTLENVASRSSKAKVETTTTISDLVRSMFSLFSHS

Structure (SMILES): Nc1ncnc2c1ncn2[C@@H]1O[C@H](COP(=O)(O)OP(=O)(O)OC[C@H]2OC(O)[C@H](O)[C@@H]2O)[C@@H](O)[C@H]1O (some centres unmarked) [ADPR]
- Kd [1]: 25.8 µM
- X-ray crystal structure, 2.15 Å (crystal soak) [2]: we observed electron density for ADPR in one of the MavL-UbVME subunits
